We go through 121 compounds from a melting point compilation (Tetko et al.).

On to `CC(C)NC(C)(C)CO`, for which the melting point lay within 42 to 44 °C.
For the compound `Nc1ccc(OCCO)nc1`, the melting point lay in the range of 63 to 65 °C.
The compound `O=C1c2ccccc2C(=O)N1CC1CN(Cc2ccccc2)CCO1` (stereo unspecified) displayed a melting point of 136 to 138 °C.
Take `O=C(O)C1(c2c(Cl)cccc2Cl)CC1`: the melting point lay in the range of 216 to 218 °C.
Under `CCOC(=O)CCS(=O)(=O)c1ccc(F)cc1` stands 38 to 40 °C; under `CC(C)N1N=C(C(=O)O)CCC1=O`, 131 to 133 °C; under `Cn1cc(N2CCCC(Br)C2=O)cn1` (stereo unspecified), 121 to 123 °C.
For the compound `NS(=O)(=O)c1ccc(Br)cn1`, the melting point fell in the range of 170 to 172 °C.
Consider `O=C(O)c1c[nH]c2ccc(Br)cc12`, for which the melting point lay in the range of 238 to 240 °C.
Compound `S=c1[nH][nH]c(=Nc2cccc(Br)c2)s1` gave a melting point of 225 to 227 °C.
The compound `CC(N)(C(=O)O)c1ccccc1` (stereo unspecified) had a melting point of 169 to 171 °C.
Compound `Cn1c(Cl)nnc1-c1ccccc1` yielded a melting point of 161 to 163 °C.
In the case of `COc1ccc(C=O)c([N+](=O)[O-])c1`, the melting point lay in the range of 91 to 93 °C.
Under `O=C(O)c1ccnc(NC2CCCC2)c1` stands 296 to 298 °C.
In turn, `Nc1cccc(N2C(=O)CNC2=O)c1` registered a melting point of 156 to 158 °C.
The result for `ClCc1nc(-c2ccco2)no1` reads 82 to 84 °C.
As for `CC(C)(C)OC(=O)NCCOc1cccc(N)c1`, the melting point lay within 65 to 67 °C.
The result for `Cc1cccc(NC(=O)NCC(=O)O)c1` reads 182 to 184 °C.
Turning to `CSc1ccc(C=CC(=O)O)cc1`, the melting point fell in the range of 177 to 179 °C.
The result for `O=C1NCCN2CCCC12` (stereo unspecified) reads 73 to 75 °C; that for `Nc1c(F)ccc(Br)c1C(=O)O`, 128 to 130 °C.
In turn, `COC(=O)c1ccccc1NC(=O)CBr` yielded a melting point of 78 to 80 °C.
`NNC(=O)Cc1cccs1` had a melting point of 64 to 66 °C.
The compound `O=C(NC(Cc1ccccc1)C(=O)O)c1cccs1` (stereo unspecified) registered a melting point of 202 to 204 °C.
The result for `O=C(O)C(Oc1ccc(Br)cc1Cl)c1ccccc1` (stereo unspecified) reads 135 to 137 °C; that for `CCCS(=O)(=O)N1CCC(C(=O)O)CC1`, 146 to 148 °C.
`Cc1ccc(CCCCC(=O)O)cc1` registered a melting point of 75 to 77 °C.
Consider `Cc1ccc(-c2cc(CBr)on2)cc1`, for which the melting point was 86 to 88 °C.
As to `O=C(O)c1cc(Cl)ccc1NS(=O)(=O)c1ccccc1`, the melting point lay in the range of 184 to 186 °C.
As for `Nc1ccccc1-c1cc(F)c(F)c(F)c1`, the melting point was 64 to 66 °C.
Under `CCOc1ccc(OCC2CO2)cc1` (stereo unspecified) stands 53 to 55 °C; under `NS(=O)(=O)c1cccc2cnccc12`, 222 to 224 °C.
Under `N#CCC(=O)N1CCN(C(c2ccccc2)c2ccccc2)CC1` stands 110 to 112 °C; under `C=CS(=O)(=O)c1ccc([N+](=O)[O-])cc1`, 112 to 114 °C; under `O=S(=O)(Cl)c1cc2c(cc1Cl)OCCO2`, 139 to 141 °C.
Consider `Cc1csc(SCc2c(C(=O)O)oc3ccccc23)n1`, for which the melting point is 177 to 179 °C.
As to `O=C(O)c1ccc(Br)c(S(=O)(=O)N2CCOCC2)c1`, the melting point was in the range of 167 to 169 °C.
With `CNS(=O)(=O)c1csc(C(=O)O)c1`, the melting point is 170 to 172 °C.
As to `Nc1cc(C(F)(F)F)no1`, the melting point lay in the range of 52 to 54 °C.
`O=c1[nH]c(CNCc2ccccc2)nc2ccccc12` yielded a melting point of 139 to 141 °C.
`CC(C)C(C(=O)O)N1CCCC1=O` (stereo unspecified) showed a melting point of 130 to 132 °C.
Consider `O=C(O)C=Cc1cc(Cl)ccc1OCc1ccc(F)cc1`, for which the melting point is 166 to 168 °C.
`CC(C)C(Br)C(=O)NC1CCCCCC1` (stereo unspecified): the melting point was in the range of 119 to 121 °C.
Take `O=C(O)c1cc(-c2ccccc2)nc2cc(Br)ccc12`: the melting point is 219 to 221 °C.
As to `O=C(O)c1cc(-c2ccncc2)nc2ccccc12`, the melting point is 308 to 310 °C.
For the compound `NC(=S)c1cccc(NC(=O)C2CC2)c1`, the melting point lay within 181 to 183 °C.
Under `C#CCOc1ncccc1C(=O)O` stands 120 to 122 °C; under `O=C(c1cnc(Cl)c(Cl)c1)N1CCCCC1`, 78 to 80 °C; under `CC(C)CNc1c(N)n(CC(C)C)c(=O)[nH]c1=O`, 197 to 199 °C.
`COC(=O)c1cc(N)cc(S(C)(=O)=O)c1` displayed a melting point of 194 to 196 °C.
`O=C(CCl)NCC(=O)c1ccccc1` returned a melting point of 124 to 126 °C.
Under `N#CCC(=O)NCc1ccco1` stands 93 to 95 °C.
Turning to `O=C(O)c1c[nH]cc1C(=O)O`, the melting point fell in the range of 311 to 313 °C.
`Cc1[nH]c(=O)[nH]c(=O)c1CO` had a melting point of 326 to 328 °C.
The result for `CCNC(=O)c1cccc(N)c1` reads 69 to 71 °C; that for `NC(=O)c1c(N)sc2c1CCCC2`, 153 to 155 °C; that for `CNCC(O)CN1CCCC1=O` (stereo unspecified), 88 to 90 °C.
With `Nc1nnc(-c2ccc(F)cc2F)o1`, the melting point was in the range of 232 to 234 °C.
In turn, `CC(C)c1nccc(O)n1` had a melting point of 239 to 241 °C.
The result for `CC1(C)CC(=O)C=C(N)C1` reads 167 to 170 °C; that for `Nc1ccc(-n2nccn2)cc1C(F)(F)F`, 84 to 86 °C.
In the case of `CC1(C)Cc2cc(C(=O)O)sc2-c2ccccc21`, the melting point lay within 209 to 211 °C.
The compound `O=C(O)c1cc(S(=O)(=O)N2CCCCC2)ccc1N1CCOCC1` registered a melting point of 173 to 175 °C.
As for `Cc1ncc(CO)n1-c1ccccc1`, the melting point lay in the range of 173 to 175 °C.
`O=C(O)C1(c2cccc(Br)c2)CC1`: the melting point was 143 to 145 °C.
Compound `Cc1ccc(-n2nc(C(=O)O)c3c2CCC3)c(C)c1` returned a melting point of 198 to 200 °C.
Compound `NC(CC(=O)N1CCOCC1)=NO` showed a melting point of 147 to 149 °C.
`Cc1ccc(-c2noc3nc(C)cc(C(=O)O)c23)cc1` gave a melting point of 261 to 263 °C.
Under `Cc1ncc(Br)c(N)n1` stands 109 to 111 °C; under `O=C(O)c1cccc(N2CCCC2=O)c1`, 195 to 208 °C.
Consider `O=C(O)COc1cccc(Oc2ccccn2)c1`, for which the melting point was in the range of 124 to 126 °C.
Regarding `O=C(CN1CCNCC1)NC1CC1`, the melting point is 22 to 24 °C.
For the compound `O=C(O)C1CCCN(C(=O)c2ccc3[nH]ncc3c2)C1` (stereo unspecified), the melting point was in the range of 239 to 241 °C.
The result for `Nc1nc(-c2ccccc2)c(-c2ccccc2)o1` reads 150 to 152 °C; that for `O=C(O)CC(n1cnc2sccc2c1=O)C(F)(F)F` (stereo unspecified), 188 to 190 °C.
For `O=C(O)CCc1nnc(C2CCCC2)o1`, the melting point was in the range of 62 to 64 °C.
Turning to `CC(C)Cc1csc2nc(CC#N)[nH]c(=O)c12`, the melting point is 218 to 220 °C.
Under `CC(C)NC(=O)Nc1ccc(CN)cc1` stands 133 to 135 °C; under `O=C(O)c1cccc(S(=O)(=O)N2CCN(c3ccc(F)cc3)CC2)c1`, 129 to 131 °C.
For the compound `Cc1nn(Cc2ccccc2)c(Cl)c1CCl`, the melting point fell in the range of 53 to 55 °C.
For `Cc1cc(C(=O)O)cc(C)c1OCC(=O)N1CCCCC1`, the melting point lay in the range of 175 to 177 °C.
Turning to `Cc1ccc(N)c(OCc2ccccc2)c1`, the melting point is 68 to 70 °C.
For the compound `OCCCOc1ccc(Br)cc1`, the melting point lay in the range of 34 to 36 °C.
In turn, `O=S(=O)(Cl)c1ccc(OCCBr)cc1` returned a melting point of 59 to 61 °C.
Consider `O=C1CCc2cc3c(cc21)OCCO3`, for which the melting point lay in the range of 118 to 120 °C.
In turn, `COCCOc1ccc(C(F)(F)F)cc1NC(=O)CCl` gave a melting point of 80 to 82 °C.
`O=C(O)c1ccnc(N2CCCC2)n1`: the melting point was in the range of 205 to 207 °C.
The result for `CC1(C)OCC(C)(C(=O)O)CO1` reads 117 to 119 °C; that for `O=C1NC(=O)C2(CCSCC2)N1`, 265 to 267 °C.
For `CCCCc1ccc2nc(N)sc2c1`, the melting point was in the range of 95 to 101 °C.
`CC(C)(C)OC(=O)Nc1csc(Br)n1` came in with a melting point of 104 to 106 °C.
In turn, `O=C(O)c1sc2cccc(Cl)c2c1Cl` had a melting point of 273 to 275 °C.
As for `Fc1ccc(-c2cncc(Cl)n2)cc1`, the melting point lay in the range of 95 to 97 °C.
In the case of `O=C(O)c1cc(Cl)c2ccccc2c1O`, the melting point fell in the range of 228 to 230 °C.
Compound `O=C(O)c1csc(S(=O)(=O)Cl)c1` returned a melting point of 130 to 132 °C.
Under `CNc1cc(-c2ccc(OC)cc2)[nH]n1` stands 122 to 124 °C.
Compound `Cc1nc(CCl)nc2ccccc12` displayed a melting point of 60 to 62 °C.
Take `Cc1c(C(=O)O)cnn1-c1cccc(C(F)(F)F)c1`: the melting point lay within 122 to 124 °C.
For `CCOC(=O)c1c(C)n(Cc2ccccc2)c2ccc(O)cc12`, the melting point was 198 to 200 °C.
Regarding `Cn1ccnc(NN)c1=O`, the melting point lay in the range of 131 to 133 °C.
As to `NNC(=O)c1ccc(COc2cccc3cccnc23)cc1`, the melting point was in the range of 135 to 137 °C.
On to `N#CCC1=NC(=O)CS1`, for which the melting point was in the range of 183 to 185 °C.
Compound `CC1CN(c2ccc(N)cc2)CC(C)O1` (stereo unspecified) showed a melting point of 73 to 75 °C.
The result for `CC(=O)Nc1cc(S(=O)(=O)Cl)ccc1O` reads 289 to 291 °C; that for `CCOC(=O)c1cccnc1S`, 99 to 101 °C.
In the case of `COCCN(C(=O)CCl)c1c(N)n(CC(C)C)c(=O)[nH]c1=O`, the melting point lay in the range of 204 to 206 °C.
In turn, `NS(=O)(=O)c1cccs1` came in with a melting point of 142 to 144 °C.
In the case of `NS(=O)(=O)c1ccc(-c2ccc(Br)cc2)cc1`, the melting point fell in the range of 207 to 209 °C.
As to `O=C(O)Cn1cnc2ccccc2c1=O`, the melting point was in the range of 241 to 243 °C.
Under `c1cc(-c2nnc[nH]2)ccn1` stands 225 to 227 °C.
For `O=C(O)C1CCCN(C(=O)Cc2ccc(F)cc2)C1` (stereo unspecified), the melting point fell in the range of 122 to 124 °C.
The result for `NS(=O)(=O)c1cc(Cl)ccc1[N+](=O)[O-]` reads 157 to 159 °C; that for `O=C(O)c1ccc(N2CCCCC2=O)cc1`, 213 to 215 °C.
Regarding `Cc1ccc(NC(=O)C(C)Cl)cc1F` (stereo unspecified), the melting point was 102 to 104 °C.
Under `Cc1cc(C=O)cnc1Cl` stands 47 to 49 °C; under `ClCc1nc(-c2nc[nH]n2)no1`, 187 to 189 °C; under `CCOC(=O)c1cc(C(=O)O)cc([N+](=O)[O-])c1`, 178 to 180 °C.
The compound `O=C(O)CCNS(=O)(=O)C(F)(F)F` displayed a melting point of 87 to 89 °C.
Take `Cc1cc(Br)cc2ccc(=O)[nH]c12`: the melting point was in the range of 278 to 280 °C.
In the case of `CC(C)Oc1ccc(C(=O)NCC(=O)O)cc1`, the melting point fell in the range of 154 to 156 °C.
As to `Cn1cc(C(=O)NC2CCNCC2)cn1`, the melting point was in the range of 204 to 206 °C.
